What was measured:
[1] = molecular target: T1, Ubiquitin carboxyl-terminal hydrolase isozyme L1 (Homo sapiens, UniProt P09936); test: Inhibition of human his tagged UCH-L1 by Westernblot analysis
T1 sequence (P09936 whole entry): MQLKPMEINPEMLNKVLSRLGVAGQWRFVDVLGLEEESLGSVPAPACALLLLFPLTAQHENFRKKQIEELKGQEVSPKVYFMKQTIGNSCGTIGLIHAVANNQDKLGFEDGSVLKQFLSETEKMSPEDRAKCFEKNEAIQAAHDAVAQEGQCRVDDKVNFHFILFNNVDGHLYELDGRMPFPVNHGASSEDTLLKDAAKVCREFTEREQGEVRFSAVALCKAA

[2] = molecular target: T2, Ubiquitin carboxyl-terminal hydrolase isozyme L3 (Homo sapiens, UniProt P15374); test: Inhibition of human his tagged UCH-L3 by Westernblot analysis
T2 sequence (P15374 whole entry): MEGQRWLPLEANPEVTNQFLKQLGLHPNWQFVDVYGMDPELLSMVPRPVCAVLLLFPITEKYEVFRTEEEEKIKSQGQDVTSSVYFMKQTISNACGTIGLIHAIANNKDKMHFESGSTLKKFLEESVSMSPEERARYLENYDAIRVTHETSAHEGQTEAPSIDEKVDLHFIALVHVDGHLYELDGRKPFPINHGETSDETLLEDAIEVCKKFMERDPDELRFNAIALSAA

[3] = molecular target: T3, Ubiquitin carboxyl-terminal hydrolase 2 (Homo sapiens, UniProt O75604); test: Inhibition of human his tagged USP2 by Westernblot analysis
T3 sequence (O75604 whole entry): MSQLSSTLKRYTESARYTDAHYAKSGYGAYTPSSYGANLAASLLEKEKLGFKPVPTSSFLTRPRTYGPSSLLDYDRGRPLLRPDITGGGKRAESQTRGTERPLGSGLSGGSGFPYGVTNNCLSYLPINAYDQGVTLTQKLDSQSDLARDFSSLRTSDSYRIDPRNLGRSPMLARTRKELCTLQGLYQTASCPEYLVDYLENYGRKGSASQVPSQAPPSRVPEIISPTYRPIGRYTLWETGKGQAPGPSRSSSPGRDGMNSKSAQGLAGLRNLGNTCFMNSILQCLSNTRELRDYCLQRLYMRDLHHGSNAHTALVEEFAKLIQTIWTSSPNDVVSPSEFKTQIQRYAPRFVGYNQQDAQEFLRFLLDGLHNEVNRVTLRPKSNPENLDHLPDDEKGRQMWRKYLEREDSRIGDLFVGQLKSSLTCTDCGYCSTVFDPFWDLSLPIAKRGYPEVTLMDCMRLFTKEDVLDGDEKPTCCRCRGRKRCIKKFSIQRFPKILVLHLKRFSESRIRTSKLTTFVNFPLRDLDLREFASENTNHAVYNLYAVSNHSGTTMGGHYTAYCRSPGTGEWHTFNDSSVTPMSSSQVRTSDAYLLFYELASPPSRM

[4] = molecular target: T4, Ubiquitin carboxyl-terminal hydrolase 5 (Homo sapiens, UniProt P45974); test: Inhibition of human his tagged USP5 by Westernblot analysis
T4 sequence (P45974 whole entry): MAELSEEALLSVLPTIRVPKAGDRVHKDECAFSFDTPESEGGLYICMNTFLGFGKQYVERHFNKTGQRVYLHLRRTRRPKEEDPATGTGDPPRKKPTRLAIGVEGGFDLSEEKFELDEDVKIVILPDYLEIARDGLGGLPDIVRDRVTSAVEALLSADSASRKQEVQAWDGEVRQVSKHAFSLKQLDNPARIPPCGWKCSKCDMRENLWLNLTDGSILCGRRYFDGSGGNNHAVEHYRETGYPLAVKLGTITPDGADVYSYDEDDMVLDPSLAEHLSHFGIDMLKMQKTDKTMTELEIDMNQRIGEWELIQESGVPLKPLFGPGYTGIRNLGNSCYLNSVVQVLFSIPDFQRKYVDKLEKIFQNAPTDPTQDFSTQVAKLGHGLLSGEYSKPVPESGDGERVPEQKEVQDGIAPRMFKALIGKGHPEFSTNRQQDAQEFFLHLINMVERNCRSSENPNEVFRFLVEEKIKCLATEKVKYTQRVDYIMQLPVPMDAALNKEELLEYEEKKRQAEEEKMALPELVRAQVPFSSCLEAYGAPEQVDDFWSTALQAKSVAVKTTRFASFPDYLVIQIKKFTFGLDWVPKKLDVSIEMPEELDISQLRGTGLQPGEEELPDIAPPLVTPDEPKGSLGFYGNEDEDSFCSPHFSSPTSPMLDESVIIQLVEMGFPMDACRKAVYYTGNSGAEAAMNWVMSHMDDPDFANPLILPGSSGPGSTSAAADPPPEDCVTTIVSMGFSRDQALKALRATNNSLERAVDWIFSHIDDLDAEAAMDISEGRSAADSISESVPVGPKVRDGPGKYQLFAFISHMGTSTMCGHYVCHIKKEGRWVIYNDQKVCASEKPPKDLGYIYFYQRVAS

[5] = molecular target: Ubiquitin carboxyl-terminal hydrolase 20 (Homo sapiens, UniProt Q9Y2K6); test: Inhibition of human his tagged USP20 by Westernblot analysis
Chain of Ubiquitin carboxyl-terminal hydrolase 20 (Q9Y2K6 whole entry): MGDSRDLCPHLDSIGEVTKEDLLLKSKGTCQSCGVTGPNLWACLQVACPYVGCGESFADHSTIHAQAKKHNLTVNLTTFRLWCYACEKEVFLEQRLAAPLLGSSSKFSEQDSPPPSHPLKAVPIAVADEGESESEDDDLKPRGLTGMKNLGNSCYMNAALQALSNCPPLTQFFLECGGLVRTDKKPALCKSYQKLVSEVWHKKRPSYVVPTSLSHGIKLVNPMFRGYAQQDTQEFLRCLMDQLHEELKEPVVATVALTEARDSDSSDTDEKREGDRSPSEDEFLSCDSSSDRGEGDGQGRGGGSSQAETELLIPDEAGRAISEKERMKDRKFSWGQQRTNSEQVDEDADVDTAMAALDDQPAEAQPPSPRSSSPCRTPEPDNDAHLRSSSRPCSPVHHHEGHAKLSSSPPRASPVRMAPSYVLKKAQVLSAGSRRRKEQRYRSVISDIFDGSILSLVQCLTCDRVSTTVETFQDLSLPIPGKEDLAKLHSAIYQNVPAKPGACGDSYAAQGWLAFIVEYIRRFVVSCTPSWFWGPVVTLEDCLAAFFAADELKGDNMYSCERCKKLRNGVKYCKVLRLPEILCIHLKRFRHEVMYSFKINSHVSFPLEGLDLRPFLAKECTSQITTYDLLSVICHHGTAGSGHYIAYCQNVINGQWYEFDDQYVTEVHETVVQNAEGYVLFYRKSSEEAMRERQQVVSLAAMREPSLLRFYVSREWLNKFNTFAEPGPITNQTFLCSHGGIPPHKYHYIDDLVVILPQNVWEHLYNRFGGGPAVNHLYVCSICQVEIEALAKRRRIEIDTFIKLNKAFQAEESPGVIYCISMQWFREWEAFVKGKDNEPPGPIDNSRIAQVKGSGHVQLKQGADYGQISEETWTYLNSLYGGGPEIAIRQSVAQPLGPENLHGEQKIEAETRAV

[6] = molecular target: T5, Ubiquitin carboxyl-terminal hydrolase 8 (Homo sapiens, UniProt P40818); test: Inhibition of human his tagged USP8 by Westernblot analysis
T5 sequence (P40818 whole entry): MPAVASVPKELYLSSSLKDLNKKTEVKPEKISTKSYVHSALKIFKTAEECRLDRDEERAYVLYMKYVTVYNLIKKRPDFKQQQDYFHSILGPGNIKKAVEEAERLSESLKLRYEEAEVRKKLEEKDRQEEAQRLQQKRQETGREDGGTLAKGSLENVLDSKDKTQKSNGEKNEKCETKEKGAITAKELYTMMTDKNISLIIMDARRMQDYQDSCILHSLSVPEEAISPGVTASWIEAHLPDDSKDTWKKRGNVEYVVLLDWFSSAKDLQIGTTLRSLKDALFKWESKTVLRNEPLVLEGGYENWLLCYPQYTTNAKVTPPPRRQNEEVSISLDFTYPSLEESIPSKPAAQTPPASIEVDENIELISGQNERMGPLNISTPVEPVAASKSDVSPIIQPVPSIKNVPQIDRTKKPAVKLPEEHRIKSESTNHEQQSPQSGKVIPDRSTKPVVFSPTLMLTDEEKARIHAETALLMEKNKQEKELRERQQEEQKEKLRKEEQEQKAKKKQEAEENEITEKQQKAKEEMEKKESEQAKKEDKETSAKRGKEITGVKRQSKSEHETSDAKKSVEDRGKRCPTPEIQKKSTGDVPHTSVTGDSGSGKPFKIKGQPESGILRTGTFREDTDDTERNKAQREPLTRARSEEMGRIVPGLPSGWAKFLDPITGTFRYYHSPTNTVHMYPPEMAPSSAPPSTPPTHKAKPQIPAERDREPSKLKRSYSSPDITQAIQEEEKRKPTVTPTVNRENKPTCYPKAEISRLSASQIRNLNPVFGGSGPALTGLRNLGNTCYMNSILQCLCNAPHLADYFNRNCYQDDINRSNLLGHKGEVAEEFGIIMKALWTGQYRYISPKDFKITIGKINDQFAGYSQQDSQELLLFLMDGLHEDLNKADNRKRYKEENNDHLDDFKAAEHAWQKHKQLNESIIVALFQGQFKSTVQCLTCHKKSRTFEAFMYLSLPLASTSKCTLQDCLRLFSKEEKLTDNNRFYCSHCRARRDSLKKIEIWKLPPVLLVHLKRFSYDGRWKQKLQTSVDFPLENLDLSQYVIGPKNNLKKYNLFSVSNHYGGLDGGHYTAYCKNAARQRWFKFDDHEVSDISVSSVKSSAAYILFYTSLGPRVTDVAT

[7] = molecular target: T6, Ubiquitin carboxyl-terminal hydrolase 2 (Homo sapiens) (UniProt O75604); test: Inhibition of human USP2 (258 to 605 residues) catalytic domain assessed as inhibition constant by fluorescence based assay
T6 sequence (whole entry): T3 sequence (O75604 whole entry)

[8] = molecular target: T7, Ubiquitin carboxyl-terminal hydrolase 7 (Homo sapiens, UniProt Q93009); test: Inhibition of USP7 (unknown origin)
Target sequence in this assay (Q93009 whole entry): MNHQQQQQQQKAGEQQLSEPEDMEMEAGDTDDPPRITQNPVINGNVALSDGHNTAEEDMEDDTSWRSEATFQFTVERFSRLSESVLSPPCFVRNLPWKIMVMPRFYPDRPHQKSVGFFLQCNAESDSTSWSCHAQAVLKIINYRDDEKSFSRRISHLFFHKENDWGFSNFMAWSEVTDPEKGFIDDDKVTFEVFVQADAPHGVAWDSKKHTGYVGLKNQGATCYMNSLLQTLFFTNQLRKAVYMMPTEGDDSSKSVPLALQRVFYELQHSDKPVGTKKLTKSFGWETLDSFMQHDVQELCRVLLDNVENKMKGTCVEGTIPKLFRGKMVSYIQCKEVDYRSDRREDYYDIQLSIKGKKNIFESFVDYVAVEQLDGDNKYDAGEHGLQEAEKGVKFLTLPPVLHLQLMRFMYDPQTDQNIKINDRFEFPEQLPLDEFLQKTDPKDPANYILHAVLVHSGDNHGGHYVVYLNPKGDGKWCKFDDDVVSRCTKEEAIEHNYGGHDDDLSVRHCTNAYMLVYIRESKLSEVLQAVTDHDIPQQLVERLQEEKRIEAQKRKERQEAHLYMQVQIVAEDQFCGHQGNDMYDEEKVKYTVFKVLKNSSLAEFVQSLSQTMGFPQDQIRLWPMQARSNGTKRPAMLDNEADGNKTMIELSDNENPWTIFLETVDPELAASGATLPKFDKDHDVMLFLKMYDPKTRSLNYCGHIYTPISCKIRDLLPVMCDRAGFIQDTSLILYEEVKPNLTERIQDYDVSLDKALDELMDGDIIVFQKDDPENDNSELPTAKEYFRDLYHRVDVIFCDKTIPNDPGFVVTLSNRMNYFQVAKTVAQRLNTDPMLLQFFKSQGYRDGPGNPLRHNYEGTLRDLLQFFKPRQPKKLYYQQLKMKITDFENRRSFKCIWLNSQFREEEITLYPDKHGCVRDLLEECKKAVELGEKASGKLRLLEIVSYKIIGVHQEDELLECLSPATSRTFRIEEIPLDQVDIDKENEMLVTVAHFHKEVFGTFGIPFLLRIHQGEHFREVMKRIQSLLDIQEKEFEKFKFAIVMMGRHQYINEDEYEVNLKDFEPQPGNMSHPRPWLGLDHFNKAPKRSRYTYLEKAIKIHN

[9] = molecular target: T7, Ubiquitin carboxyl-terminal hydrolase 7; test: Inhibition of human USP7 using Ub-Rho110 as substrate by fluorescence based SPR analysis
Target sequence in this assay (Q93009 whole entry): as above

[10] = molecular target: T8, Ubiquitin carboxyl-terminal hydrolase 25 (Homo sapiens, UniProt Q9UHP3); test: Inhibition of USP25 (unknown origin) using […] as substrate by […] analysis
T8 sequence (Q9UHP3 whole entry): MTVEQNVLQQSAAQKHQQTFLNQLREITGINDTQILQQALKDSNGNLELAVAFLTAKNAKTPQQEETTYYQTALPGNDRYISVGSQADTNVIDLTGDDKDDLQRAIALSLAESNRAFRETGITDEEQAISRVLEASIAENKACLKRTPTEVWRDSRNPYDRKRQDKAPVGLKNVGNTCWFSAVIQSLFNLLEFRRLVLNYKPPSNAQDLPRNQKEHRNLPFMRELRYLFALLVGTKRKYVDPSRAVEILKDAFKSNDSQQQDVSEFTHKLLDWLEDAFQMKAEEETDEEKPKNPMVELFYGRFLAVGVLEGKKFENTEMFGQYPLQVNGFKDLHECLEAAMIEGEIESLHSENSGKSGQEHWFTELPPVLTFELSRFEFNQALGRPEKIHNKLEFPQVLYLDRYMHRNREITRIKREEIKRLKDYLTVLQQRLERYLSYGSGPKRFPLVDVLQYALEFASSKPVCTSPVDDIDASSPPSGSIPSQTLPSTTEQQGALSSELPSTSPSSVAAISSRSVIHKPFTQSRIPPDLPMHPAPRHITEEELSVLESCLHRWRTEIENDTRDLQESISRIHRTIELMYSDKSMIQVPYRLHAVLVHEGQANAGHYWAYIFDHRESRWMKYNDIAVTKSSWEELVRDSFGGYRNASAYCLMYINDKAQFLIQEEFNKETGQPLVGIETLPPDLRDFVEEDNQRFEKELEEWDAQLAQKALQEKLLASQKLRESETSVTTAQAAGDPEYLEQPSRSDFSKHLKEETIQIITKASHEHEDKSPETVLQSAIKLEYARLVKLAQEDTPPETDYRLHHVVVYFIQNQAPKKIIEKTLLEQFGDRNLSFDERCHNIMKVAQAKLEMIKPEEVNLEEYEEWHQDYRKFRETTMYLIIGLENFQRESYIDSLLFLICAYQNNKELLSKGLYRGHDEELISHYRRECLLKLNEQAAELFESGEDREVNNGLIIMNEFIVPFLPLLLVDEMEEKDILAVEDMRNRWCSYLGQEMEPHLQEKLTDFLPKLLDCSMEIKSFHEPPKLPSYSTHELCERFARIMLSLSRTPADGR

[11] = molecular target: T9, Ubiquitin carboxyl-terminal hydrolase 28 (Homo sapiens, UniProt Q96RU2); test: Inhibition of USP28 (unknown origin) using […] as substrate by […] analysis
T9 sequence (Q96RU2 whole entry): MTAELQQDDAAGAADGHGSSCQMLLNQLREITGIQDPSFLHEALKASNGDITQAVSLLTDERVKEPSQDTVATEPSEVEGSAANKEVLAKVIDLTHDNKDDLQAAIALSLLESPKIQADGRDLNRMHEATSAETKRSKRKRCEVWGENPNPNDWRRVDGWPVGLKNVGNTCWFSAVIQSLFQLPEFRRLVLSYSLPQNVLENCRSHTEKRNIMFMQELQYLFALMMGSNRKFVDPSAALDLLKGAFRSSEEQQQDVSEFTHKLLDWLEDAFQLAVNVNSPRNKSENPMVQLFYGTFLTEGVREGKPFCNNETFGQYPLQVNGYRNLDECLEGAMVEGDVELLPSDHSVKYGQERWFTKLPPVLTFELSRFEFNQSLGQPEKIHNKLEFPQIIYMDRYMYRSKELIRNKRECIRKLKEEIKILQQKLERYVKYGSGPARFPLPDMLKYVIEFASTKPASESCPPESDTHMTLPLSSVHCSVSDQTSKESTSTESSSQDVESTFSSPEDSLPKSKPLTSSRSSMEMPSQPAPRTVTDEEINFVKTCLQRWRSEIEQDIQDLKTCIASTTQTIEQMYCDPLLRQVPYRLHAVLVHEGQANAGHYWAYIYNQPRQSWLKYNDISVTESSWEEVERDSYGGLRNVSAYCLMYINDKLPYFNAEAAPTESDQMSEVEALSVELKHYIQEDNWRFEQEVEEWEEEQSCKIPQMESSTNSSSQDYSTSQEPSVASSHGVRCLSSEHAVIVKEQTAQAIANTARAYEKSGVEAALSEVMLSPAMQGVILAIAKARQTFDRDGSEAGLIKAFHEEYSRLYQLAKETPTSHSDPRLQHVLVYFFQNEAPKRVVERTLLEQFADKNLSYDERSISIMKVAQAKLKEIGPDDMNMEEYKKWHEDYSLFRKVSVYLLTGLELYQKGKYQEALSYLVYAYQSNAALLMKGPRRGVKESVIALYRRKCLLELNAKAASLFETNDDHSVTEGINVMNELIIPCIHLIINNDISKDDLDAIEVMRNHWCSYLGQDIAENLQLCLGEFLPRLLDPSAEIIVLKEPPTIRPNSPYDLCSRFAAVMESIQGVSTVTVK

HCT-116 = test: Anticancer activity against human HCT-116 cells assessed as cell growth inhibition; assay type: functional, cell-based
[12] = molecular target: T7, Ubiquitin carboxyl-terminal hydrolase 7; test: Inhibition of human his tagged USP7 (208 to 560 residues) expressed in insect sf9 cells using monoubiquitinated ubiquitin-rhodamine as substrate assessed as ratio of Kinact/Ki incubated for 1 hrs by fluorescence based assay
Target sequence in this assay (Q93009 whole entry, looked up): as the sequence (Q93009 whole entry) above

[13] = molecular target: T7, Ubiquitin carboxyl-terminal hydrolase 7; test: Inhibition of human his tagged USP7 (208 to 560 residues) expressed in insect sf9 cells using monoubiquitinated ubiquitin-rhodamine as substrate assessed as dissociation constant incubated for 1 hrs by fluorescence based assay
Target sequence in this assay (Q93009 whole entry): as the sequence (Q93009 whole entry) above

[14] = molecular target: T7, Ubiquitin carboxyl-terminal hydrolase 7; test: Inhibition of human USP7 by SPR analysis
Target sequence in this assay (Q93009 whole entry): as the sequence (Q93009 whole entry) above

Structure (SMILES): O=C(NCCc1ccc(Cl)cc1)c1ccc2nc3c(c(Cl)c2c1)CCCC3
- IC50 [1]: > 200 µM
- IC50 [2]: > 200 µM
- IC50 [3]: > 200 µM
- IC50 [4]: > 200 µM
- IC50 [5]: > 200 µM
- IC50 [6]: > 200 µM

Structure (SMILES): Nc1nc2[nH]cnc2c(=S)[nH]1
- Kis [7]: 24.6 µM

Structure (SMILES): CC(=O)c1cc([N+](=O)[O-])c(Sc2c(Cl)cncc2Cl)s1
- IC50 [8]: 2 µM

Structure (SMILES): NCc1ccc(-c2[nH]nc3c(=O)n(CC4(O)CCN(C(=O)C[C@H](c5ccccc5)C(F)(F)F)CC4)cnc23)cc1
- IC50 [9]: 0.0015 µM

Structure (SMILES): OCCNCc1cc(Br)ccc1OCc1ccccc1
- IC50 [10]: 52.5 µM
- IC50 [11]: 59.6 µM

Structure (SMILES): OCCNCc1cc(Br)ccc1OCc1cccc(OC(F)(F)F)c1
- IC50 [10]: 0.88 µM
- IC50 [11]: 1.1 µM

Structure (SMILES): CN(CCCNC(=O)c1ccc2nc3c(c(Cl)c2c1)CCCC3)Cc1ccccc1
- IC50 (HCT-116): 2 µM

Structure (SMILES): C=CS(=O)(=O)Nc1ccccc1-c1ccc(C(=O)N2CCC(O)(Cn3cnc4c(cnn4-c4ccc(F)cc4)c3=O)CC2)cc1
- Ratio [12]: 66 M⁻¹ s⁻¹
- Kd [13]: 7.8 µM
- IC50 [14]: 0.065 µM

Source: ChEMBL document CHEMBL5233229, “Recent advances in the development of ubiquitin-specific-processing protease 7 (USP7) inhibitors” (Eur J Med Chem, 2020)
